Consider 14 compounds from patent US9920022B2, “Small molecule compound and synthesizing method and uses thereof” (TECHNODERMA MEDICINES PTE LTD., priority 2014, dated 2018).

SMILES strings stand for the structures.

As usually defined, the EC50 is the concentration at which the effect is half-maximal.

The target of one series is T1, Thyroid Receptor TRβ (Homo sapiens, UniProt P10828).
T1 construct: expressed in transfected cells; host or cells: HEK-293
T1 sequence (P10828 1-461): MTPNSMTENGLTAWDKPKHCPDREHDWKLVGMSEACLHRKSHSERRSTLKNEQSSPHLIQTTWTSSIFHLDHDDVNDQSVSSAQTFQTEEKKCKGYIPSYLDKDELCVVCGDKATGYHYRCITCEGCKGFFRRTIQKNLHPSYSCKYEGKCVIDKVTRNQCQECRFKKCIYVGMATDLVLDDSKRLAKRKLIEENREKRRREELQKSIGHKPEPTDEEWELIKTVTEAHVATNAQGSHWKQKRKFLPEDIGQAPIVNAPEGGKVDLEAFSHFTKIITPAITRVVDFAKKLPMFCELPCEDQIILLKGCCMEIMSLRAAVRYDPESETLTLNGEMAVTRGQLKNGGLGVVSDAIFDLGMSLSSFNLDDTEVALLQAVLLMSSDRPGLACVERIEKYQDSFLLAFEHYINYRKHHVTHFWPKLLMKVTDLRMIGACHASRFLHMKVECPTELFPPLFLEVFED
In words: Thyroid Receptor TRβ Agonist Assay (luciferase reporter gene, co-transfected HEK-293 cells). It counts as cell-based. As to conditions: TRβ plasmid + thyroid hormone response element luciferase reporter in HEK-293 cells; 24 hours; maximum concentration 10 μM. As for the experimental part: B: Thyroid Receptor TRβ Agonist Assay
(2) The residual poly-D-lysine is removed. On the 96-well plate, HEK-293 cells are plated at a density of 4.0×10^4 cells/well in DMEM medium containing 10% FBS. The cells are cultured at 37° C. overnight.
(1) The culture medium is removed 2 hours before transfection. 100 μl of DMEM culture medium containing 10% FBS treated by activated carbon is added to each well, and incubated at 37° C. for 2 hours.
3. For each reaction system, 50 ng thyroid receptor (TRβ) plasmid DNA and 50 ng luciferase reporter gene plasmid DNA of thyroid hormone response element are added. Mixing it completely by gentle pipeting.
4. 0.2 μl of transfection reagent X-tremeGENE HP is added to the diluted co-transfected DNA mixture. Mixing it completely by gentle pipeting.
(3) 10 μl of the complex is added to each well in a 96 well plate. Gently shaking the culturing plate to evenly distribute the complex.
(4) The culture is incubated at 37° C. for 24 hours.
(1) Preparation of compound diluent: for each compound, half-log dilutions of each test compound is prepared using DMEM medium containing 10% charcoal stripped FBS (containing 0.1% DMSO), with a maximum concentration of 10 μM of the test compound.
(2) Removing the culture medium and adding the formulated compound diluent (the final DMSO concentration is 0.1%).
(3) For blank control, DMEM medium containing 10% charcoal stripped FBS (containing 0.1% DMSO) is added.
(4) Incubating at 37° C. for 24 hours.
(1) Removing the culture medium, adding 40 μl phosphate (PBS) buffer to each well.
(2) Adding 40 μl Bright-Glo reagent to each well and vortexing for 30 seconds, followed by incubation in dark for 2 min.
(3) Transferring 70 μl cell lysate from each well into a white polystyrene 96-well plate.
(4) Detecting the Luciferase signal intensity by Envision.
(In general: In a reporter assay the amount or activity of a reporter protein is the signal.)

A further series relates to C3H mice. In words: Mouse experiment: hair growth after topical administration. It counts as in vivo. The settings on record: for day of topical administration on which the skin became black / day on which hair growth was observed: 20 μl/mouse topical twice/day. As for the experimental part:
A. Mouse Experiment: TMI-105795 is Used as Test Compound in the Experiment
The tested compound (TMI-105795) is sub-packaged into dose volume and kept at −20° C. before use. All tested compounds (including solvents) are labeled as TDM-001-1, TDM-001-2, TDM-001-3 and TDM-001-4.
Female C3H mice (35-39 days after birth at arrival) were obtained from Beijing Vital River Laboratory Animal Technology Co., Ltd. The mice were selected for inclusion based upon acceptable clinical condition and body weight. Animals were housed randomly 5 mice per cage before grouping. All mice were kept at least one week in acclimation in the animal facility prior to any procedures. Animal identification number was labeled on the tail and cage tag respectively.
The test compound is TMI-105795 (solvent is polyethylene glycol/ethanol (30/70)), it is sub-packaged into dose volume and kept in −20° C. before use. It was topically administered together with solvent twice every day at 9:30 am and 4:00 pm.
Hair growth grade, peripheral hair growth, scaling, erythema will be scored on Monday, Wednesday and Friday from the beginning on the Day 1 to the termination of the experiment.
All experimental mice were carefully dipped with the hair on the back of the rear leg with shaver. Care must be taken to avoid any irritation to the skin on the back of mouse. Skin color on the back was confirmed again. All mice must show pink skin, any mice that show signs of skin abrasion were excluded from the experiment. Mice were randomly divided into 5 groups and housed individually.
Body weight of each mouse is recorded before administration every morning. 20 μl corresponding solution is aspirated by pipette and applied to shaving area on the back of the mouse, and then the drug solution is uniformly applied to the back between rear legs with tips, about a region with a diameter of 1 cm. It is ensured that the administered region is the same one every day, and the mouse is put into the case after drying of liquid.
All mice are scored on Monday Wednesday and Friday each week from the beginning on the Day 1 to the termination of the study, using the following scoring guidelines:
a. Hair Growth Grade (Administration Area):
0=No color change, or hair growth on the skin
1=Skin color changes uniformly over the administration area from pink to gray/black with no visible hair growth;
2=Appearance of short and sparse hair growth;
3=Full thick hair growth similar to the surrounding normal hair coat.
b. Peripheral Hair Growth (Defined as Hair Growth that is in the Dipped Area, but not in the Administration Area):
0=No color change, or hair growth on the skin;
1=Skin color changes to gray/black with no visible hair growth;
2=Peripheral sparse hair growth;
3=Peripheral thick hair growth.

The mark [1] stands for this setting: all treatment groups, 3 weeks topical administration.

For the compound `O=C(NO)C(=O)Nc1cc(Cl)c(Oc2ccc(O)c(CN3CCC(Cc4ccccc4)CC3)c2)c(Cl)c1` [TMI-105959], at Thyroid Receptor TRβ, the half-maximal effective concentration (EC50) was determined as 617 nM.
With `O=C(NO)C(=O)Nc1cc(Cl)c(Oc2ccc(O)c(Cc3ccc(F)cc3)c2)c(Cl)c1` [TMI-105795, N1-(3,5-dichloro-4-(3-(4-fluorobenzyl)-4-hydroxyphenoxy)phenyl)-N2-oxalyl hydroxylamine], in the series on C3H mice (TDM-001-2 group, 0.005% (w/v)), the “day of topical administration on which the skin became black” value (“day of topical administration” below) is 12 days and the “day on which hair growth was observed” value came to 16 days. Moreover, in the series with C3H mice (TDM-001-3 group, 0.01% (w/v)), the “day of topical administration” value was determined as 2 days and the “day on which hair growth was observed” value came out at 6 days. In the series with C3H mice (TDM-001-4 group, 0.05% (w/v)), the “day of topical administration” value worked out at 2 days and the “day on which hair growth was observed” value was 8 days. Further, the “body weight change during administration” value in the series with C3H mice (all groups, 3 weeks topical administration) is reported as “would not induce the loss of animal body weight”. In the series on C3H mice (setting [1]), the “erythema of the skin” value was “not observed” and the “scaling of the skin” value is reported as “not observed”. In addition, the “promoting hair growth compared with solvent group” value with C3H mice (female C3H mice, topical, twice/day, 5 days/week for 3 weeks, every dosing amount (0.005%, 0.01%, 0.05% w/v)) is listed as “positive result in promoting hair growth”. Also, the “dose dependence of hair growth effect” value with C3H mice (female C3H mice, topical, 0.005%, 0.01%, 0.05% (w/v)) is on record as “dose dependent effect is observed”. In addition, the EC50 on Thyroid Receptor TRβ is 179 nM.
As for `O=C(NO)C(=O)Nc1cc(Cl)c(Oc2ccc(O)c(CN3CCOCC3)c2)c(Cl)c1` [TMI-105906, N1-(3,5-dichloro-4-(4-hydroxy-3-(morpholinomethyl)phenoxy)phenyl)-N2-oxalyl hydroxylamine], the EC50 at Thyroid Receptor TRβ came out at 925 nM.
For `O=C(NO)C(=O)Nc1cc(Cl)c(Oc2ccc(O)c(Cc3ccccc3F)c2)c(Cl)c1` [TMI-105966], the half-maximal effective concentration (EC50) on Thyroid Receptor TRβ was found to be 61.1 nM.
Consider `O=C(NO)C(=O)Nc1cc(Cl)c(Oc2ccc(O)c(CN3CCc4ccccc4C3)c2)c(Cl)c1` [TMI-105962, N1-(3,5-dichloro-4-(3-(3,4-dihydroisoquinolin-2(1H)-methyl)-4-hydroxyphenoxy)phenyl)-N2-oxalyl hydroxylamine], for which, at Thyroid Receptor TRβ, the half-maximal effective concentration (EC50) amounted to 3720 nM.
`O=C(NO)C(=O)Nc1cc(Cl)c(Oc2ccc(O)c(CN3CCC(O)CC3)c2)c(Cl)c1` [TMI-105956]: the concentration giving a half-maximal response (EC50) at Thyroid Receptor TRβ came to 6520 nM.
For `O=C(NO)C(=O)Nc1cc(Cl)c(Oc2ccc(O)c(CN3Cc4ccccc4C3)c2)c(Cl)c1` [TMI-105961, N1-(3,5-dichloro-4-(4-hydroxy-3-(isoindolin-2-methyl)phenoxy)phenyl)-N2-oxalyl hydroxylamine], at Thyroid Receptor TRβ, the EC50 was 9240 nM.
In the case of `O=C1CN(Cc2cc(Oc3c(Cl)cc(NC(=O)C(=O)NO)cc3Cl)ccc2O)CCN1` [TMI-105963], at Thyroid Receptor TRβ, the EC50 was 9580 nM.
With `CS(=O)(=O)c1ccc(Cc2cc(Oc3c(Cl)cc(NC(=O)C(=O)NO)cc3Cl)ccc2O)cc1` [TMI-105902, N1-(3,5-dichloro-4-(3-(4-methylsulphonylbenzyl)-4-hydroxyphenoxy)phenyl)-N2-oxalyl hydroxylamine], the EC50 on Thyroid Receptor TRβ is 250 nM.
On the same count and under the same terms, the result for `O=C(NO)C(=O)Nc1cc(Cl)c(Oc2ccc(O)c(Cc3ccc(Cl)c(Cl)c3)c2)c(Cl)c1` [TMI-105905, N1-(3,5-dichloro-4-(3-(3,4-dichlorobenzyl)-4-hydroxyphenoxy)phenyl)-N2-oxalyl hydroxylamine] reads 400 nM.
With `O=C(NO)C(=O)Nc1cc(Cl)c(Oc2ccc(O)c(Cc3cccc(F)c3)c2)c(Cl)c1` [TMI-105965], the EC50 at Thyroid Receptor TRβ amounted to 96 nM.
For the compound `CN1CCN(Cc2cc(Oc3c(Cl)cc(NC(=O)C(=O)NO)cc3Cl)ccc2O)CC1` [TMI-105957, N1-(3,5-dichloro-4-(4-hydroxy-3-(4-methylpiperazine-1-methyl)phenoxy)phenyl)-N2-oxalyl hydroxylamine], the 50% effective concentration (EC50) at Thyroid Receptor TRβ came out at 8760 nM.
The same measure, in the same setting: the result for `O=C(NO)C(=O)Nc1cc(Cl)c(Oc2ccc(O)c(CN3CCCC3)c2)c(Cl)c1` [TMI-105958, N1-(3,5-dichloro-4-(4-hydroxy-3-(methylpyrrolidin-1-methyl)phenoxy)phenyl)-N2-oxalyl hydroxylamine] reads 9700 nM; that for `Cc1ccc(Cc2cc(Oc3c(Cl)cc(NC(=O)C(=O)NO)cc3Cl)ccc2O)cc1` [TMI-105903, N1-(3,5-dichloro-4-(3-(4-methylbenzyl)-4-hydroxyphenoxy)phenyl)-N2-oxalyl hydroxylamine], 136 nM.
